Measured values: patent publication US20020049199A1, “N-linked carbamates and ureas of heterocyclic thioesters” (priority 1996, published 2002)
Read-outs that look alike come from different tables or passages of the source.

Key:
[1] = target: FKBP (Homo sapiens, UniProt P62942); assay: Ki test procedure: inhibition of peptidyl-prolyl isomerase (rotamase) activity, chymotrypsin-coupled assay; assay type: biochemical; conditions: apparent Ki
Source text: Inhibition of the peptidyl-prolyl isomerase (rotamase) activity of the inventive compounds can be evaluated by known methods described in the literature (Harding, et al., Nature, 1989, 341:758-760; Holt et al. J. Am. Chem. Soc., 115:9923-9938). The cis-trans isomerization of an alanine-proline bond in a model substrate, N-succinyl-Ala-Ala-Pro-Phe-p-nitroanilide, is monitored spectrophotometrically in a chymotrypsin-coupled assay, which releases para-nitroanilide from the trans form of the substrate. The inhibition of this reaction caused by the addition of different concentrations of inhibitor is determined, and the data is analyzed as a change in first-order rate constant as a function of inhibitor concentration to yield the apparent Ki values.
In a plastic cuvette are added […] of ice cold assay buffer (25 mM HEPES, pH 7.8, 100 mM NaCl), […] of FKBP (2.5 mM in 10 mM Tris-Cl pH 7.5, 100 mM NaCl, 1 mM dithiothreitol), 25 mL of chymotrypsin (50 mg/ml in 1 mM HCl) and […] of test compound at various concentrations in dimethyl sulfoxide. The reaction is initiated by the addition of 5 mL of substrate (succinyl-Ala-Phe-Pro-Phe-para-nitroanilide, 5 mg/mL in 2.35 mM LiCl in trifluoroethanol).
The absorbance at 390 nm versus time is monitored for 90 seconds using a spectrophotometer and the rate constants are determined from the absorbance versus time data files.
The data for these experiments for representative compounds are presented in Table II under the column “Ki”.

[2] = tested on: chick dorsal root ganglia; assay: Chick dorsal root ganglion cultures and neurite outgrowth; assay type: cell-based; conditions: neurite outgrowth, 48 hours after drug treatment, Table II (b), ranked potency, read-out: ED50, nMa
Description: Dorsal root ganglia were dissected from chick embryos of ten day gestation. Whole ganglion explants were cultured on thin layer Matrigel-coated 12 well plates with Liebovitz L15 plus high glucose media supplemented with 2 mM glutamine and 10% fetal calf serum, and also containing 10 μM cytosine β-D arabinofuranoside (Ara C) at 37° C. in an environment containing 5% CO2. Twenty-four hours later, the DRGs were treated with various immunophilin ligands. Forty-eight hours after drug treatment, the ganglia were visualized under phase contrast or Hoffman Modulation contrast with a Zeiss Axiovert inverted microscope. Photomicrographs of the explants were made, and neurite outgrowth was quantitated. Neurites longer than the DRG diameter were counted as positive, with total number of neurites quantitated per each experimental condition. Three to four DRGs are cultured per well, and each treatment was performed in duplicate.
The data for these experiments for representative compounds are presented in Table II under the column “ED50”.

FKBP, sequence (P62942 whole entry): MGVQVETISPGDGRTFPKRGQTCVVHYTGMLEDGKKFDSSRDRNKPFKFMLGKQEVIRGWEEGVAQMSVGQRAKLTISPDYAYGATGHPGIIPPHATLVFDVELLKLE

Molecule | Ki ([1]; Table II (c), numerical) [nM] | EC50 [2] [µM] | Ki ([1]; Table II (a), ranked potency) [nM] | other results
3-(3,5-Dimethoxyphenyl)propyl (2S)-1-{[(1S)-1-(1-naphthyl)ethyl]-carbamoyl}-2-pyrrolidinecarbothioate [Compound 28] | 8090 | < 0.001 |  | 
3-(3-Fluorophenyl)propyl (2S)-1-(Cyclohexylcarbamoyl)-2-pyrrolidinecarbothioate [Compound 21] |  | < 0.001 | 1 to 50 | 
3-(3,4,5-Trimethoxyphenyl)propyl (2S)-1-(hexylcarbamoyl)-2-pyrrolidinecarbothioate [Compound 39] | 31 |  |  | 
3-Phenylpropyl (2S)-1-(1-cyclohexylcarbamoyl)-2-pyrrolidinecarbothioate [Compound 17] |  | 0.051 to 0.2 |  | Ki ([1]; Table II (a), ranked potency, listed as 4): 51 to 200 nM
3-(4-Methylphenyl)propyl (2S)-1-(tert-butylcarbamoyl)-2-pyrrolidinecarbothioate [Compound 26] | 739 | < 0.001 |  | 
CCC(C)CNC(=O)N1CCC[C@H]1C(=O)SCCCc1cccnc1 (stereo partly drawn) [Compound 1, 3-(3-Pyridyl)-1-propylmercaptyl 2S-1-[(2-methylbutyl)carbamoyl]pyrrolidine-2-carboxylate] |  |  | 1 to 50 | EC50 ([2]; Gallus gallus): < 0.001 µM
3,3-Diphenylpropyl (2S)-1-[(1,1,3,3-tetramethylbutyl)carbamoyl]-2-pyrrolidinecarbothioate [Compound 29] | 5150 | 0.051 to 0.2 |  | 
O=C(SCCCc1ccccc1)[C@@H]1CCCN1C(=S)NC12CC3CC(CC(C3)C1)C2 [Compound 38] | 659 |  |  | 
CCC(C)(C)NC(=O)N1CCC[C@H]1C(=O)SCCCc1cccnc1 [Compound 2] |  |  | 51 to 200 | EC50 ([2]; Gallus gallus): 0.001 to 0.05 µM
3-(4-Methylphenyl)propyl (2S)-1-(cyclohexylcarbamoyl)-2-pyrrolidinecarbothioate [Compound 24] | 605 | 0.001 to 0.05 |  | 
3-(3,4,5-Trimethoxyphenyl)propyl (2S)-1-(benzylcarbamoyl)-2-pyrrolidinecarbothioate [Compound 40] | 82 |  |  | 
3-Phenylpropyl (2S)-1-(dimethylcarbamoyl)-2-pyrrolidinecarbothioate [Compound 41] | 722 |  |  | 
3-Phenylpropyl (2S)-1-(1-pyrrolidinylcarbamoyl)-2-pyrrolidinecarbothioate [Compound 42] | 525 |  |  | 
3-Cyclohexylpropyl (2S)-1-(hexylcarbamoyl)-2-pyrrolidinecarbothioate [Compound 32] |  |  | > 500 | 
O=C(SCCCc1cccnc1)[C@@H]1CCCN1C(=S)NC1CCCCC1 [Compound 7, 3-(3-pyridyl)-1-propylmercaptyl 2S-1-[(cyclohexyl)thiocarbamoyl]-pyrrolidine-2-carboxylate] |  | 0.001 to 0.05 | 51 to 200 | 
O=C(SCCCc1ccccc1)[C@@H]1CCCN1C(=O)N1CCOCC1 [Compound 43, 3-Phenylpropyl (2S)-1-(morphilinocarbamoyl)-2-pyrrolidinecarbothioate] | 3740 |  |  | 
3-(2,3,5-Trimethylphenyl)propyl 1-(cyclohexylcarbamoyl)-2-pyrrolidinecarbothioate [Compound 20] |  | 0.001 to 0.05 | 51 to 200 | 
3-(3,5-Dimethoxyphenyl)propyl (2S)-1-{[(1S,2R)-2-phenyl-cyclopropyl]carbamoyl]-2-pyrrolidinecarbothioate [Compound 34] |  |  | > 500 | 
3,3-Diphenylpropyl (2S)-1-[(2,4-dimethoxyphenyl)carbamoyl]-2-pyrrolidinecarbothioate [Compound 33] |  |  | > 500 | 
3-Phenylpropyl (2S)-1-(1-adamantylcarbamoyl)-2-pyrrolidinecarbothioate [Compound 36] |  |  | 201 to 500 | 
3-Phenylpropyl (2S)-1-[(2,4-Dimethoxyphenyl)carbamoyl]-2-pyrrolidinecarbothioate [Compound 35] |  |  | > 500 | Ki ([1]; Table II (c), numerical, listed as 21): 795 nM
3-(2,3,5-Trimethylphenyl)propyl 1-(1-adamantylcarbamoyl)-2-pyrrolidinecarbothioate [Compound 19] |  | 0.051 to 0.2 | 201 to 500 | 
3-Phenylpropyl (2S)-1-(1-cyclohexylcarbamoyl)-2-pyrrolidinecarbothioate [Compound 37] |  |  |  | Ki ([1]; Table II (a), ranked potency, listed as 23): > 500 nM
3-Cyclohexylpropyl (2S)-1-[(2,6-diisopropylphenyl)carbamoyl]-2-pyrrolidinecarbothioate [Compound 31] |  |  | > 500 | 
3-(4-Methylphenyl)propyl (2S)-1-(1-adamantylcarbamoyl)-2-pyrrolidinecarbothioate [Compound 25] | 209 | 0.001 to 0.05 |  | 
3-(2-Fluorophenyl)propyl (2S)-1-(1-adamantylcarbamoyl)-2-pyrrolidinecarbothioate [Compound 22] |  | < 0.001 | 1 to 50 | 
3-(2-Fluorophenyl)propyl (2S)-1-(cyclohexylcarbamoyl)-2-pyrrolidinecarbothioate [Compound 23] |  | 0.001 to 0.05 | 1 to 50 | 
Phenethyl (2S)-N-(cyclohexylcarbamoyl)-2-pyrrolidinecarbothioate [Compound 18] |  | 0.001 to 0.05 | 51 to 200 | 
O=C(SCCCc1ccccc1Cl)[C@@H]1CCCN1C(=O)NC1CCCCC1 [Compound 27] | 1490 | 0.001 to 0.05 |  | 
